Reference: ChEMBL document CHEMBL4837235, “Cyclic Imine Pinnatoxin G is Cytotoxic to Cancer Cell Lines via Nicotinic Acetylcholine Receptor-Driven Classical Apoptosis” (2021)
Calls of active or inactive are those of the source. The rule behind the calls is not given here.

Legend:
[1] = system: PC-3; assay: Cell cycle arrest in human PC-3 cells assessed as decrease in accumulation of cells at G2/M phase at 5 uM after 72 hrs by propidium iodide staining based flow cytometric analysis; assay type: functional
[2] = system: U-87 MG; assay: Cytotoxicity against human U87 cells assessed as reduction in cell viability at 5 uM after 72 hrs by MTT assay; assay type: functional, U-87MG ATCC
[3] = system: HT-29; assay: Induction of apoptosis in human HT-29 cells assessed as caspase activation using Ac-DEVD-AMC as substrate at 5 uM measured after 72 hrs by fluorometric assay relative to control; assay type: functional
[4] = system: HeLa; assay: Cytotoxicity against human HeLa cells assessed as loss of cell viability at 5.76 uM measured after 72 hrs by MTT assay; assay type: functional
[5] = system: N2a; assay: Cytotoxicity against mouse Neuro2a cells assessed as cell viability at 0.46 uM measured after 72 hrs by MTT assay; assay type: functional, cell-based
[6] = system: HT-29; assay: Cytotoxicity against human HT-29 cells assessed as reduction in cell viability at 5 uM after 72 hrs by MTT assay; assay type: functional
[7] = system: PC-3; assay: Induction of mitochondrial membrane permeability in human PC-3 cells assessed as mitochondrial membrane permeability at 5 uM measured after 72 hrs by TMRE staining based analysis (reference value: 7%); assay type: functional
[8] = system: MDA-MB-231; assay: Induction of apoptosis in human MDA-MB-231 cells assessed as caspase activation using Ac-DEVD-AMC as substrate at 5 uM measured after 72 hrs by fluorometric assay relative to control; assay type: functional
[9] = system: PC-3; assay: Cell cycle arrest in human PC-3 cells assessed as accumulation of cells at G0/G1 phase at 5 uM after 72 hrs by propidium iodide staining based flow cytometric analysis (reference value: 59.7+/- 0.2%); assay type: functional
[10] = Cytotoxicity against human U373 cells assessed as reduction in cell viability at 5 uM after 72 hrs by MTT assay; assay type: functional, U-373MG ATCC; conditions: U373 MG
[11] = system: HT-29; assay: Cell cycle arrest in human HT-29 cells assessed as accumulation of cells at subG1 phase at 5 uM after 72 hrs by propidium iodide staining based flow cytometric analysis (reference value: 1.9+/- 0.1%); assay type: functional
[12] = system: LN-18; assay: Cytotoxicity against human LN-18 cells assessed as reduction in cell viability at 5 uM after 72 hrs by MTT assay; assay type: functional
[13] = system: MDA-MB-231; assay: Induction of apoptosis in human MDA-MB-231 cells assessed as early apoptosis at 5 uM measured after 72 hrs by AnnexinV/propidium iodide staining based flow cytometry; assay type: functional
[14] = system: HT-29; assay: Cell cycle arrest in human HT-29 cells assessed as accumulation of cells at S phase at 5 uM after 72 hrs by propidium iodide staining based flow cytometric analysis (reference value: 5.3+/- 0.4%); assay type: functional
[15] = target: T1, Neuronal acetylcholine receptor (Homo sapiens) (UniProt P17787+P30926+P32297+P43681+Q15822+Q9UGM1+Q15825+P30532+P36544+Q9GZZ6+Q05901); assay: Antagonist activity at nAChR in human HT-29 cells assessed as reduction in cytoplasmic free calcium level at 5 uM measured upto 6 hrs by Fura2-AM dye based fluorescence assay; assay type: cell-based; conditions: time hrs <=6
[16] = system: MDA-MB-231; assay: Cell cycle arrest in human MDA-MB-231 cells assessed as decrease in accumulation of cells at G2/M phase at 5 uM after 72 hrs by propidium iodide staining based flow cytometric analysis; assay type: functional
[17] = system: PC-3; assay: Induction of apoptosis in human PC-3 cells assessed as early apoptosis at 5 uM measured after 72 hrs by AnnexinV/propidium iodide staining based flow cytometry; assay type: functional
[18] = system: HT-29; assay: Induction of mitochondrial membrane permeability in human HT-29 cells assessed as mitochondrial membrane permeability at 5 uM measured after 72 hrs by TMRE staining based analysis (reference value: 7%); assay type: functional
[19] = system: MDA-MB-231; assay: Cell cycle arrest in human MDA-MB-231 cells assessed as accumulation of cells at subG1 phase at 5 uM after 72 hrs by propidium iodide staining based flow cytometric analysis (reference value: 1.1+/- 0.1%); assay type: functional
[20] = system: MDA-MB-231; assay: Cytotoxicity against human MDA-MB-231 cells assessed as reduction in cell viability at 5 uM after 24 hrs by MTT assay; assay type: functional, cell-based
[21] = system: MDA-MB-231; assay: Cytotoxicity against human MDA-MB-231 cells assessed as reduction in cell viability at 5 uM after 48 to 72 hrs by MTT assay; assay type: functional, cell-based; conditions: time 48-72 hrs
[22] = system: Caco-2; assay: Cytotoxicity against human Caco-2 cells assessed as cell viability at 0.46 uM measured after 72 hrs by MTT assay; assay type: functional, cell-based
[23] = system: PC-3; assay: Cell cycle arrest in human PC-3 cells assessed as accumulation of cells at subG1 phase at 5 uM after 72 hrs by propidium iodide staining based flow cytometric analysis (reference value: 3.7+/- 0.2%); assay type: functional
[24] = system: MDA-MB-231; assay: Induction of mitochondrial membrane permeability in human MDA-MB-231 cells assessed as mitochondrial membrane permeability at 5 uM measured after 72 hrs by TMRE staining based analysis (reference value: 7%); assay type: functional
[25] = system: U-373MG ATCC; assay: Cytotoxicity against human U373 cells assessed as reduction in cell viability at 5 uM after 24 to 72 hrs by MTT assay; assay type: functional, cell-based; conditions: time 24-72 hrs
[26] = system: HT-29; assay: Cytotoxicity against human HT-29 cells assessed as reduction in cell viability at 5 uM after 24 to 72 hrs by MTT assay; assay type: functional, cell-based; conditions: time 24-72 hrs
[27] = system: U-87 MG; assay: Cytotoxicity against human U87 cells assessed as reduction in cell viability at 5 uM after 24 to 72 hrs by MTT assay; assay type: functional, cell-based; conditions: U-87MG ATCC, time 24-72 hrs
[28] = system: MDA-MB-231; assay: Cell cycle arrest in human MDA-MB-231 cells assessed as accumulation of cells at G0/G1 phase at 5 uM after 72 hrs by propidium iodide staining based flow cytometric analysis (reference value: 57.7+/- 0.6%); assay type: functional
[29] = system: MDA-MB-231; assay: Cytotoxicity against human MDA-MB-231 cells assessed as reduction in cell viability at 5 uM after 72 hrs by MTT assay; assay type: functional
[30] = system: HT-29; assay: Induction of apoptosis in human HT-29 cells assessed as early apoptosis at 5 uM measured after 72 hrs by AnnexinV/propidium iodide staining based flow cytometry; assay type: functional
[31] = system: HT-29; assay: Cell cycle arrest in human HT-29 cells assessed as accumulation of cells at G2/M phase at 5 uM after 72 hrs by propidium iodide staining based flow cytometric analysis (reference value: 22.3+/- 0.4%); assay type: functional
[32] = target: T1, Neuronal acetylcholine receptor (Homo sapiens); assay: Antagonist activity at nAChR in human PC-3 cells assessed as reduction in cytoplasmic free calcium level at 5 uM measured upto 6 hrs by Fura2-AM dye based fluorescence assay; assay type: cell-based; conditions: time hrs <=6
[33] = system: PC-3; assay: Cytotoxicity against human PC-3 cells assessed as reduction in cell viability at 5 uM after 72 hrs by MTT assay; assay type: functional
[34] = system: PC-3; assay: Cytotoxicity against human PC-3 cells assessed as reduction in cell viability at 5 uM after 48 to 72 hrs by MTT assay; assay type: functional, cell-based; conditions: time 48-72 hrs
[35] = system: LN-18; assay: Cytotoxicity against human LN-18 cells assessed as reduction in cell viability at 5 uM after 24 to 72 hrs by MTT assay; assay type: functional, cell-based; conditions: time 24-72 hrs
[36] = system: PC-3; assay: Induction of apoptosis in human PC-3 cells assessed as caspase activation using Ac-DEVD-AMC as substrate at 5 uM measured after 72 hrs by fluorometric assay relative to control; assay type: functional
[37] = target: T1, Neuronal acetylcholine receptor (Homo sapiens); assay: Antagonist activity at nAChR in human MDA-MB-231 cells assessed as reduction cytoplasmic free calcium level at 5 uM measured upto 6 hrs by Fura2-AM dye based fluorescence assay; assay type: cell-based; conditions: time hrs <=6
[38] = system: PC-3; assay: Cytotoxicity against human PC-3 cells assessed as reduction in cell viability at 5 uM after 24 hrs by MTT assay; assay type: functional, cell-based

With `C=CC1=C[C@@H]2[C@@H]3O[C@]4(C[C@H]5CCC[C@@]6(CC[C@@]7(O[C@@H](CC[C@@]7(C)O)CC(=C)CCCC7=NC[C@H](C)[C@@H](C)C[C@@]72CC1)O6)O5)C[C@@H](C)[C@@H](O)[C@H]3O4` as the compound, how does the Activity [1] read?
Its Activity is “Active”.

What about the inhibition at 5 µM [2] of the same compound?
Its inhibition at 5 µM is 30%.

And the “fold change (FC)” value [3]?
Its value is 10.5.

What about the Activity [4] of the same compound?
Its Activity is 27%.

And the Activity [5]?
Its Activity is “inactive”.

What about the inhibition at 5 µM [6] of the same compound?
The inhibition at 5 µM was 50%.

And the Activity [7]?
Its Activity is 13.8%.

What about the “fold change (FC)” value [8] of the same compound?
The value was 5.5.

And the Activity [9]?
The Activity was 65.4%.

And the inhibition at 5 µM [10]?
Its inhibition at 5 µM is 50%.

What about the Activity [11] of the same compound?
The Activity was 5.5%.

And the inhibition at 5 µM [12]?
Its inhibition at 5 µM is 50%.

And the Activity [13]?
Its Activity is 13.7%.

What about the Activity [14] of the same compound?
The Activity was 8%.

And the inhibition [15]?
The inhibition was 16.2%.

What about the Activity [16] of the same compound?
The Activity was “Active”.

And the Activity [17]?
The Activity was 13.9%.

What about the Activity [18] of the same compound?
The Activity was 17.9%.

And the Activity [19]?
Its Activity is 4.5%.

And the Activity [20]?
The Activity was “inactive”.

And the Activity [21]?
Its Activity is “Active”.

And the Activity [22]?
The Activity was “inactive”.

And the Activity [23]?
Its Activity is 9.7%.

And the Activity [24]?
Its Activity is 14.8%.

What about the Activity [25] of the same compound?
Its Activity is “Active”.

And the Activity [26]?
The Activity was “Active”.

And the Activity [27]?
Its Activity is “Active”.

What about the Activity [28] of the same compound?
Its Activity is 62.4%.

And the inhibition at 5 µM [29]?
Its inhibition at 5 µM is 30%.

And the Activity [30]?
The Activity was 10.7%.

What about the Activity [31] of the same compound?
Its Activity is 32.5%.

What about the inhibition [32] of the same compound?
The inhibition was 14.2%.

What about the inhibition at 5 µM [33] of the same compound?
The inhibition at 5 µM was 30%.

And the Activity [34]?
The Activity was “Active”.

What about the Activity [35] of the same compound?
The Activity was “Active”.

What about the “fold change (FC)” value [36] of the same compound?
Its value is 5.5.

And the inhibition [37]?
The inhibition was 23.6%.

What about the Activity [38] of the same compound?
The Activity was “inactive”.
